Laboratory results as given in article PMC12316308, “Interactions of substrates and phosphinyl containing inhibitors with bacterial and human zinc proteases” (PLOS One, 2025).
Several values for one entry are separate records, joined by “and”; a condition that tells them apart may be missing. Equal values may be shown once. Read-outs that look alike come from different tables or passages of the source.

Experiments:
Format in all cases: biochemical
[1] = molecular target: T1, human MT1-MMP/MMP-14 (catalytic domain) (Homo sapiens, UniProt P50281); assay: Enzyme inhibition kinetics, fluorogenic substrate ES001; details: MMP-14; for remaining activity at 100 µM: 100 µM inhibitor
T1 construct: human MT1-MMP/MMP-14 (catalytic domain); purchased Calbiochem (San Diego, CA, USA)
Protocol: (§1) Determination of reaction velocities. The substrate ES001 was used for APMA activated MMP-9 (MMP-9(A)), Mag-Trypsin activated MMP-9 (MMP-9(MT)) and MMP-14, while the substrate ES005 was used for ALN, PLN and TLN. The reaction velocities/initial rates (v) were determined at 37°C, at an excitation wavelength of 320 nm and an emission wavelength of 405 nm with a slit width of 10 nm using either a Perkin Elmer LS 50 Luminescence spectrometer and the FL WinLab Software Package (Perkin Elmer) or a Clario Star micro plate reader (CLARIOstar® BMG LABTECH).
(§2) The phosphinic compounds were dissolved in 100% DMSO to a final concentration of 10 mM. In all assays, a fixed substrate concentration of 4.0 µM was used in a total volume of 100 µL 0.1 M Hepes pH 7.5, 10 mM CaCl2, 0.005% Brij-35 and 1.0% DMSO. Fixed enzyme concentrations were as follows; 0.05 nM MMP-9(A), 0.05 nM MMP-9(MT), 1.0 nM MMP-14, 1.4 nM ALN, 0.5 nM PLN and 0.21 nM TLN. Time dependent inhibitory experiments, with and without 100 μM of phosphinic compounds, were performed as follows: Compounds were either pre-incubated with proteases for 15 and 30 minutes at room temperature before initiating the enzymatic reaction by adding the substrate, or not pre-incubated, meaning the reaction was initiated by adding the protease to the mixture of substrate and compound. Control tests without the compound present were performed under the same conditions. Reactions were monitored for 30 minutes at 37°C.
(§3) Determination of IC50 and Ki values. […] A fixed substrate concentration and the same enzyme and buffer conditions as described above were used. Enzymes, with or without inhibitors, were either pre-incubated for 30 minutes at room temperature or not pre-incubated, and initial rate assays were performed as described above. Assays were performed using a Clario Star microplate reader. The IC50 values with corresponding s.d. were calculated with GraphPad Prism 5 using equation 1 or 2, depending on the concentration range of the phosphinic compounds.
(§4) Equation 3 describe the relationship between IC50 and Ki values for substrate competitive inhibitors, considering the fixed substrate concentration and the enzyme’s Km value for the substrate: […]

[2] = molecular target: T2, APMA activated MMP-9 (MMP-9(A)) (Homo sapiens, UniProt P14780); assay: as above; details: rMMP-9 (APMA activated); for remaining activity at 100 µM: 100 µM inhibitor
T2 construct: made in house; host or cells: Sf9 and High Five insect cells
Protocol: (§5) The expression of recombinant full length proMMP-9 (rpMMP-9) in Sf9 and High Five insect cells and the purification were performed as previously described. The amount of proMMP-9 was estimated spectrophotometrically at 280 nm using ε280nm = […] [46] for the full length enzyme. Activation of the recombinant proMMP-9 was performed with APMA (auto-activation) and Mag-Trypsin as previously described, while the amount of active MMP-9 was determined by active site titration using galardin, also described previously.
as §1, §2, §3, §4

[3] = molecular target: T3, Mag-Trypsin activated MMP-9 (MMP-9(MT)) (Homo sapiens, UniProt P14780); assay: as above; details: rMMP-9 (Mag-trypsin activated); for remaining activity at 100 µM: 100 µM inhibitor
T3 construct: made in house; host or cells: Sf9 and High Five insect cells
Protocol: as §5, §1, §2, §3, §4

aureolysin (ALN) = molecular target: T4, aureolysin (ALN) (Staphylococcus aureus, UniProt P81177); assay: Enzyme inhibition kinetics, fluorogenic substrate ES005; details: for remaining activity at 100 µM: 100 µM inhibitor
T4 construct: purchased BioCentrum Ltd (Kraków, Poland)
Protocol: as §1, §2, §3, §4

pseudolysin (PLN, LasB) = molecular target: T5, pseudolysin (PLN, LasB) (Pseudomonas aeruginosa, UniProt P14756); assay: as above; details: for remaining activity at 100 µM: 100 µM inhibitor
T5 construct: purchased Calbiochem (San Diego, CA, USA)
Protocol: as §1, §2, §3, §4

thermolysin (TLN) = molecular target: T6, thermolysin (TLN) (Bacillus thermoproteolyticus, UniProt P00800); assay: as above; details: for vi/v0 avg (time dependent inhibition, Supplementary Figure S8): Thermolysin, inhibitor 100 µM
T6 construct: purchased Calbiochem (San Diego, CA, USA)
Protocol: as §1, §2, §3, §4

[4] = 0.25 h, 15 min pre incubation, read-out: vi/v0 (single replicate)
[5] = 0.25 h, 15 min pre incubation, read-out: vi/v0 avg
[6] = 0.5 h, 30 min pre incubation, read-out: vi/v0 avg
[7] = no preincubation, read-out: vi/v0 (single replicate)
[8] = no preincubation, read-out: vi/v0 avg
[9] = inhibitor 100 μM, preincubation 0 min
[10] = inhibitor 100 μM, preincubation 15 min
[11] = inhibitor 100 μM, preincubation 30 min
[12] = 0.5 h, 30 min pre incubation, read-out: vi/v0 (single replicate)
[13] = inhibitor 100 μM, average over 0, 15, 30 min preincubation

T5 sequence (P14756 198-498): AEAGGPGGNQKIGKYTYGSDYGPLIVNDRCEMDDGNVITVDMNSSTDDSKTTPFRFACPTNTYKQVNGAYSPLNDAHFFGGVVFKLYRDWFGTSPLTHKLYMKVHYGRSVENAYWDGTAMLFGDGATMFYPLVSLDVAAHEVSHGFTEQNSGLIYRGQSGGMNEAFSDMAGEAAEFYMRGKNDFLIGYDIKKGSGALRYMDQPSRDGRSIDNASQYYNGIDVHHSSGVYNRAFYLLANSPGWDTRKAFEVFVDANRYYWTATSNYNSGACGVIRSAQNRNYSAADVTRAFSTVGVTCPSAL
T6 sequence (P00800 233-548): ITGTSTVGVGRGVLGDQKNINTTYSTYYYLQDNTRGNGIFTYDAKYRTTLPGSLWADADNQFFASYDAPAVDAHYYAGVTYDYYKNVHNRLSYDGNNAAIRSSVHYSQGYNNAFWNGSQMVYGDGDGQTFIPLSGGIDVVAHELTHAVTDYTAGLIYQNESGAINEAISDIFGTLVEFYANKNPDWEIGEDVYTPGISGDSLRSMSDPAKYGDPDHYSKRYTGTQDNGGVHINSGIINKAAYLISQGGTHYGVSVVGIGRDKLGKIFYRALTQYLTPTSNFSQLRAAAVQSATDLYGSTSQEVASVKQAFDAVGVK
T4 sequence (P81177 209-509): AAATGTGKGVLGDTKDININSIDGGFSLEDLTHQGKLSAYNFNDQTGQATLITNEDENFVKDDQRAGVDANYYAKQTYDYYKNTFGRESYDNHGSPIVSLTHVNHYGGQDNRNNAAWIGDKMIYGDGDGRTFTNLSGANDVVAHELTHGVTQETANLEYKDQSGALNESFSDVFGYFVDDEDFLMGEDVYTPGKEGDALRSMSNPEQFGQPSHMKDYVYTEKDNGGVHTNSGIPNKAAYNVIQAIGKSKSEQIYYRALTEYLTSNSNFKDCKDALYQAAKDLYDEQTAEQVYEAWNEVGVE
T3 sequence (P14780 107-707 limits assumed): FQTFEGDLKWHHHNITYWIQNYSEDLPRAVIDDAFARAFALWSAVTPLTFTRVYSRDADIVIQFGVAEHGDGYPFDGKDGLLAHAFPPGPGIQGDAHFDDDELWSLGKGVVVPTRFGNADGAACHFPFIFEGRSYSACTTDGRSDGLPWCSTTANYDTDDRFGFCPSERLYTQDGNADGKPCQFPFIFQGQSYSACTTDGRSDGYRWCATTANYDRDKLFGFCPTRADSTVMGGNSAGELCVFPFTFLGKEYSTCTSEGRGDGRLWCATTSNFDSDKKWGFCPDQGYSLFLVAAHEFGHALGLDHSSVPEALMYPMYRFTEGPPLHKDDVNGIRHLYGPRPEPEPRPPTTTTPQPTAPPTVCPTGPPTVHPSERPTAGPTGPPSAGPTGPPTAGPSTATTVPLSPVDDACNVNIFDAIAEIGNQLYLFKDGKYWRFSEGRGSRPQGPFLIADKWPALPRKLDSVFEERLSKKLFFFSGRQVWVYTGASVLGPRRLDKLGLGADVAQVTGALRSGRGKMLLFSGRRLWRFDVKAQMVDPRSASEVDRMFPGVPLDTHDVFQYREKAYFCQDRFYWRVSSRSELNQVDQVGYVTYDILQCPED
T2 sequence (P14780 107-707 limits assumed): as above

For `CCOC(=O)C(CO)CP(=O)(O)C(Cc1ccccc1)NC(=O)OCc1ccccc1` (stereo not drawn) [H5], the remaining activity at 100 µM [1, 4] was 87.2%, the remaining activity at 100 µM [1, 5] was 88.7% and the remaining activity at 100 µM [1, 6] was 96.8%. For the same compound, the remaining activity at 100 µM [1, 7] was 96.3%, the remaining activity at 100 µM [1, 8] was 98.5% and the “vi/v0 Av (bar diagram figure 7)” value ([1]; inhibitor 100 μM, average over preincubation times) was 0.9417. The “vi/v0 (relative enzyme activity with inhibitor), single determinations” value [1, 9] was 0.9629 and 1.0076, the “vi/v0 (relative enzyme activity with inhibitor), single determinations” value [1, 10] was 0.8725 and 0.8868 and 0.9012 and the “vi/v0 (relative enzyme activity with inhibitor), single determinations” value [1, 11] was 1.138 and 0.953 and 0.8121. It also gave a remaining activity at 100 µM [2, 5] of 102%, a remaining activity at 100 µM [2, 12] of 77.7% and a remaining activity at 100 µM [2, 6] of 83.7%. The remaining activity at 100 µM [2, 8] was 100%, the “vi/v0 Av (bar diagram figure 7)” value [2, 13] was 0.9644 and the “vi/v0 (relative enzyme activity with inhibitor), single determinations” value [2, 9] was 1.202 and 0.9509 and 1.0525 and 0.8. The “vi/v0 (relative enzyme activity with inhibitor), single determinations” value [2, 10] was 1.106 and 1.228 and 0.879 and 0.8791, the “vi/v0 (relative enzyme activity with inhibitor), single determinations” value [2, 11] was 0.7771 and 0.9097 and 0.824 and the remaining activity at 100 µM [3, 4] was 87.3%. It also gave a remaining activity at 100 µM [3, 5] of 84.8%, a remaining activity at 100 µM [3, 12] of 86.9% and a remaining activity at 100 µM [3, 6] of 88.1%. The remaining activity at 100 µM [3, 7] was 88.4%, the remaining activity at 100 µM [3, 8] was 88.5% and the “vi/v0 Av (bar diagram figure 7)” value [3, 13] was 0.8694. For the same compound, the “vi/v0 (relative enzyme activity with inhibitor), single determinations” value [3, 9] was 0.8838 and 0.8693 and 0.8452 and 0.9405, the “vi/v0 (relative enzyme activity with inhibitor), single determinations” value [3, 10] was 0.8726 and 0.9039 and 0.8256 and 0.7918 and the “vi/v0 (relative enzyme activity with inhibitor), single determinations” value [3, 11] was 0.8689 and 0.8925. For the same compound, the remaining activity at 100 µM (aureolysin (ALN); 0.25 h, read-out: vi/v0 (single replicate), Aureolysin, 15 min pre incubation) was 84.1%, the remaining activity at 100 µM (aureolysin (ALN); 0.25 h, read-out: vi/v0 avg, Aureolysin, 15 min pre incubation) was 89.9% and the remaining activity at 100 µM (aureolysin (ALN); 0.5 h, read-out: vi/v0 (single replicate), Aureolysin, 30 min pre incubation) was 89.6%. The remaining activity at 100 µM (aureolysin (ALN); 0.5 h, read-out: vi/v0 avg, Aureolysin, 30 min pre incubation) was 87.3%, the “vi/v0 Av (bar diagram figure 7)” value (aureolysin (ALN); Aureolysin (ALN), inhibitor 100 μM, average over 0, 15, 30 min preincubation) was 0.8959 and the “vi/v0 (relative enzyme activity with inhibitor), single determinations” value (aureolysin (ALN); Aureolysin (ALN), inhibitor 100 μM, preincubation 0 min) was 0.8465 and 0.9473 and 0.9691 and 0.8995. The “vi/v0 (relative enzyme activity with inhibitor), single determinations” value (aureolysin (ALN); Aureolysin (ALN), inhibitor 100 μM, preincubation 15 min) was 0.8412 and 0.9365 and 0.9386 and 0.8803, the “vi/v0 (relative enzyme activity with inhibitor), single determinations” value (aureolysin (ALN); Aureolysin (ALN), inhibitor 100 μM, preincubation 30 min) was 0.8961 and 0.824 and 0.8612 and 0.9107 and the remaining activity at 100 µM (aureolysin (ALN); read-out: vi/v0 (single replicate), Aureolysin, no preincubation) was 84.6%. For the same compound, the remaining activity at 100 µM (aureolysin (ALN); read-out: vi/v0 avg, Aureolysin, no preincubation) was 91.6%, the remaining activity at 100 µM (pseudolysin (PLN, LasB); 0.25 h, read-out: vi/v0 (single replicate), Pseudolysin, 15 min pre incubation) was 83.9% and the remaining activity at 100 µM (pseudolysin (PLN, LasB); 0.25 h, read-out: vi/v0 avg, Pseudolysin, 15 min pre incubation) was 86.2%. The remaining activity at 100 µM (pseudolysin (PLN, LasB); 0.5 h, read-out: vi/v0 (single replicate), Pseudolysin, 30 min pre incubation) was 86.3%, the remaining activity at 100 µM (pseudolysin (PLN, LasB); 0.5 h, read-out: vi/v0 avg, Pseudolysin, 30 min pre incubation) was 75.4% and the “vi/v0 Av (bar diagram figure 7)” value (pseudolysin (PLN, LasB); Pseudolysin (PLN), inhibitor 100 μM, average over 0, 15, 30 min preincubation) was 0.86. For the same compound, the “vi/v0 (relative enzyme activity with inhibitor), single determinations” value (pseudolysin (PLN, LasB); Pseudolysin (PLN), inhibitor 100 μM, preincubation 0 min) was 1.071 and 0.9333 and 0.8899, the “vi/v0 (relative enzyme activity with inhibitor), single determinations” value (pseudolysin (PLN, LasB); Pseudolysin (PLN), inhibitor 100 μM, preincubation 15 min) was 0.8394 and 0.8848 and the “vi/v0 (relative enzyme activity with inhibitor), single determinations” value (pseudolysin (PLN, LasB); Pseudolysin (PLN), inhibitor 100 μM, preincubation 30 min) was 0.863 and 0.6659 and 0.7323. For the same compound, the remaining activity at 100 µM (pseudolysin (PLN, LasB); read-out: vi/v0 (single replicate), Pseudolysin, no preincubation) was 107%, the remaining activity at 100 µM (pseudolysin (PLN, LasB); read-out: vi/v0 avg, Pseudolysin, no preincubation) was 96.5% and the “vi/v0 Av (bar diagram figure 7)” value (thermolysin (TLN); Thermolysin (TLN), inhibitor 100 μM, average over 0, 15, 30 min preincubation) was 1.046. For the same compound, the “vi/v0 (relative enzyme activity with inhibitor), single determinations” value (thermolysin (TLN); Thermolysin (TLN), inhibitor 100 μM, preincubation 0 min) was 1.137 and 1.068 and 1.02 and 1.001, the “vi/v0 (relative enzyme activity with inhibitor), single determinations” value (thermolysin (TLN); Thermolysin (TLN), inhibitor 100 μM, preincubation 15 min) was 1.051 and 0.8192 and 1.086 and 1.159 and the “vi/v0 (relative enzyme activity with inhibitor), single determinations” value (thermolysin (TLN); Thermolysin (TLN), inhibitor 100 μM, preincubation 30 min) was 1.144 and 1.0013 and 1.003 and 1.066. The “vi/v0 avg (time dependent inhibition, Supplementary Figure S8)” value (thermolysin (TLN); 15 min pre incubation) was 1.029, the “vi/v0 avg (time dependent inhibition, Supplementary Figure S8)” value (thermolysin (TLN); 30 min pre incubation) was 1.054 and the “vi/v0 avg (time dependent inhibition, Supplementary Figure S8)” value (thermolysin (TLN); No preincubation) was 1.056.
